Assay results: patent US20140155384A1, “COMPOUNDS AND METHODS OF TREATING DIABETES” (Medivation Technologies, Inc., priority 2011, published 2014)

target: T1, human recombinant adrenergic α1D receptor (Homo sapiens, UniProt P25100); assay: Radioligand binding, adrenergic α1D receptor ([3H]Prazosin); conditions: 0.1 μM compound; HEK-293 cells; 0.6 nM [3H]Prazosin; read-out: Percentage inhibition of ligand binding, Adrenergic α1D
T1 construct: expressed in transfected cells; host or cells: HEK-293
T1 sequence (P25100 1-572): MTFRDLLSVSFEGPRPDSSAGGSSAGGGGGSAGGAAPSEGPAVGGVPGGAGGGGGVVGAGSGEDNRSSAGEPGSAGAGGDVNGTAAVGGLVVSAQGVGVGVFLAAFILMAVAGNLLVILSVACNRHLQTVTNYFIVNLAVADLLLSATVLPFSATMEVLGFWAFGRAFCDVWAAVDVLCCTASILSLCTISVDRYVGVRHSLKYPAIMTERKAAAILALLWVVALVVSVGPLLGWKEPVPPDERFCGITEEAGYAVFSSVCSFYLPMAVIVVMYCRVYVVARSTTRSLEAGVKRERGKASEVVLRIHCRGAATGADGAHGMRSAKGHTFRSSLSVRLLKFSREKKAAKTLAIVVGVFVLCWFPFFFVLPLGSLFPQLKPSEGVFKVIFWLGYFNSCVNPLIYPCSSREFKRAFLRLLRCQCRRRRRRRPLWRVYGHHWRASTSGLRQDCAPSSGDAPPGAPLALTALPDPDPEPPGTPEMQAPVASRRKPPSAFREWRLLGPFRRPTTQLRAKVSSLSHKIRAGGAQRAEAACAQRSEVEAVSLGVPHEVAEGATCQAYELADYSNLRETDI
Procedure: Compounds were incubated with 0.6 nM [3H]Prazosin for 60 min at 25° C. Non-specific binding was estimated in the presence of 10 μM phentolamine. Receptor proteins were filtered and washed, the filters were then counted to determine [3H]Prazosin specifically bound. Compounds were screened at 1 μM or lower, using 1% DMSO as vehicle. Biochemical assay results are presented as the percent inhibition of specific binding in Table 2.

Row | inhibition at 0.1 µM | SMILES
1 | 69% | Cc1ccc2c(c1)c1c(n2-c2cscc2-c2ccc3c(ccn3C)c2)CCN(C)C1 [Compound 33]
2 | 62% | Cc1ccc2c(c1)c1c(n2-c2ccccc2-c2ccc3c(ccn3C)c2)CCN(C)C1 [Compound No. 85, 2,8-dimethyl-5-(2-(1-methyl-1H-indol-5-yl)phenyl)-2,3,4,5-tetrahydro-1H-pyrido[4,3-b]indole]
3 | 64% | Cc1ccc2c(c1)c1c(n2-c2ccccc2-c2cccn2C)CCN(C)C1 [Compound No. 100, 2,8-dimethyl-5-(2-(1-methyl-1H-pyrrol-2-yl)phenyl)-2,3,4,5-tetrahydro-1H-pyrido[4,3-b]indole]
4 | 68% | Cc1ccc2c(c1)c1c(n2-c2cscc2-c2ccc3cnccc3c2)CCN(C)C1 [Compound No. 68]
5 | 73% | Cc1ccc2c(c1)c1c(n2-c2cscc2-c2ccc(S(C)(=O)=O)cc2)CCN(C)C1 [Compound No. 76]
6 | 51% | Cc1csc(-c2cscc2-n2c3c(c4cc(C)ccc42)CN(C)CC3)c1 [Compound 50]
7 | 79% | COc1ccc(-c2cscc2-n2c3c(c4cc(C)ccc42)CN(C)CC3)cc1 [Compound 37]
8 | 53% | Cc1ccc2c(c1)c1c(n2-c2cscc2-c2ccc(C)s2)CCN(C)C1 [Compound No. 79]
